Test results: patent US20200095236A1, “ANTIBACTERIAL COMPOUNDS” (FORGE THERAPEUTICS, INC., priority 2017, published 2020)
≈ marks a conversion by molar mass, not a printed value. Like-named read-outs stand apart in the source and are kept apart here.

Assays:
Format in all cases: cell-based
E. coli = assay: Bacterial susceptibility testing, MIC by broth microdilution (CLSI); details: for MIC: Escherichia coli, read-out: E. coli MIC
Procedure: (§1) Minimal inhibitory concentrations (MIC) were determined by the broth microdilution method in accordance with the Clinical and Laboratory Standards Institute (CLSI) guidelines. In brief, organism suspensions were adjusted to a 0.5 McFarland standard to yield a final inoculum between 3×10^5 and 7×10^5 colony-forming units (CFU)/mL. Drug dilutions and inocula were made in sterile, cation adjusted Mueller-Hinton Broth (Beckton Dickinson). An inoculum volume of 100 μL was added to wells containing 100 μL of broth with 2-fold serial dilutions of drug. All inoculated microdilution trays were incubated in ambient air at 35° C. for 18-24 h. Following incubation, the lowest concentration of the drug that prevented visible growth (OD600 nm<0.05) was recorded as the MIC. Performance of the assay was monitored by the use of laboratory quality-control strains and levofloxacin, a compound with a defined MIC spectrum, in accordance with CLSI guidelines.

K. pneumoniae = assay: as above; details: for MIC: Klebsiella pneumoniae, read-out: K. pneumoniae MIC
Procedure: as §1

S. aureus = assay: as above; details: for MIC: Staphylococcus aureus, read-out: S. aureus MIC
Procedure: as §1

[1] = test system: TLR-4 activity of A. baumannii culture supernatants; assay: TLR4 assay: TLR4 activity of A. baumannii culture supernatants in HEK-Blue-hTLR4 cells; details: Acinetobacter baumannii, HEK-Blue hTLR4, read-out: % TLR-4 activity
Procedure: The TLR4 assay measures activity of diluted filter-sterilized A. baumannii culture supernatants. The assay was performed as described in Lin et al, Mbio, 2012. Briefly, A. baumannii was passaged to mid log-phase in the presence of Forge LpxC inhibitors. Culture supernatants were harvested, filter-sterilized and diluted 1:1000. TLR4 activity of the supernatants was tested using HEK-Blue-hTLR4 cells (Invivogen) that carry NF-kB and AP-1 driven SEAP (secreted embryonic alkaline phosphatase) reporter gene.
Exemplary TLR4 assay data (% TLR-4 activity) for compounds in embodiments of the disclosure.

[2] = broth microdilution, 35° C., 18-24 h

SMILES | MIC (E. coli; [2]) [µg/mL] | MIC (K. pneumoniae; [2]) [µg/mL] | MIC (S. aureus; [2]) [µg/mL] | other results
O=C(CF)NCC(Cc1ccc(C#Cc2ccc(CCN3CCOCC3)cc2)cc1)c1nc[nH]c(=O)c1O (stereo not drawn) [Compound 17, 2-fluoro-N-(2-(5-hydroxy-6-oxo-1,6-dihydropyrimidin-4-yl)-3-(4-((4-(2-morpholinoethyl)phenyl)ethynyl)phenyl)propyl) acetamide] | – | – | – | E. coli MIC (E. coli; [2]): B (B: >1 μg/mL to ≤8.0 μg/mL); K. pneumoniae MIC (K. pneumoniae; [2]): C (C: >8.0 μg/mL to ≤32 μg/mL); S. aureus MIC (S. aureus; [2]): D (D: >32 μg/mL)
O=c1[nH]cnc(CCc2ccc(C#Cc3ccc(CN4CC(O)C4)cc3)c(F)c2)c1O [Compound 187, 6-(3-fluoro-4-((4-((3-hydroxyazetidin-1-yl)methyl)phenyl)ethynyl)phenethyl)-5-hydroxypyrimidin-4(3H)-one] | < 1 | < 1 | > 32 | activity at 4 µg/mL [1]: 50 to 80%; activity at 8 µg/mL [1]: 50 to 80%; activity at 16 µg/mL [1]: 20 to 50%
O=c1[nH]cnc(CCc2ccc(C#Cc3ccc(CN4CCOCC4)c(F)c3)cc2)c1O [Compound 186, 6-(4-((3-fluoro-4-(morpholinomethyl)phenyl)ethynyl)phenethyl)-5-hydroxypyrimidin-4(3H)-one] | < 1 | < 1 | > 32 | –
CC(NC(=O)CF)C(Cc1ccc(C#Cc2ccc(CN3CCOCC3)cc2)cc1)c1nc[nH]c(=O)c1O (stereo not drawn) [Compound 42, 2-fluoro-N-(3-(5-hydroxy-6-oxo-1,6-dihydropyrimidin-4-yl)-4-(4-((4-(morpholinomethyl)phenyl)ethynyl)phenyl)butan-2-yl)acetamide] | – | – | – | MIC (E. coli): > 32 µg/mL; MIC (K. pneumoniae): > 32 µg/mL; MIC (S. aureus): > 32 µg/mL
O=C(CF)NCC(Cc1ccc(C#Cc2ccc(CN3CC4CCC(C3)O4)cc2)cc1)c1nc[nH]c(=O)c1O (stereo not drawn) [Compound 13, N-(3-(4-((4-((8-oxa-3-azabicyclo[3.2.1]octan-3-yl)methyl)phenyl)ethynyl)phenyl)-2-(5-hydroxy-6-oxo-1,6-dihydropyrimidin-4-yl)propyl)-2-fluoroacetamide] | – | – | – | MIC (E. coli): 1 to 8 µg/mL (≈ 1.88 to 15.1 µM); MIC (K. pneumoniae): 1 to 8 µg/mL (≈ 1.88 to 15.1 µM); MIC (S. aureus): > 32 µg/mL
O=c1[nH]cnc(CCc2ccc(C#Cc3ccc(CN4CCOCC4)cc3F)cc2)c1O [Compound 185, 6-(4-((2-fluoro-4-(morpholinomethyl)phenyl)ethynyl)phenethyl)-5-hydroxypyrimidin-4(3H)-one] | < 1 | < 1 | > 32 | –
CC(=O)NC[C@@H](Cc1ccc(C#Cc2ccc(CN3CCOCC3)cc2)cc1)c1nc[nH]c(=O)c1O [Compound 14, (R)-N-(2-(5-hydroxy-6-oxo-1,6-dihydropyrimidin-4-yl)-3-(4-((4-(morpholinomethyl)phenyl)ethynyl)phenyl)propyl)acetamide] | 1 to 8 (≈ 2.06 to 16.4 µM) | 8 to 32 (≈ 16.4 to 65.8 µM) | > 32 | activity at 4 µg/mL [1]: > 80%; activity at 8 µg/mL [1]: > 80%; activity at 16 µg/mL [1]: > 80%
O=c1[nH]cnc(CCc2ccc(C#Cc3ccc(CNC4CCOC4)cc3)cc2)c1O (stereo not drawn) [Compound 241, 5-hydroxy-6-(4-((4-(((tetrahydrofuran-3-yl)amino)methyl)phenyl)ethynyl)phenethyl)pyrimidin-4(3H)-one] | < 1 | < 1 | > 32 | –
O=C(CF)NCC(Cc1ccc(C#Cc2ccc(CCN3CCOCC3)cc2)cc1)c1nc[nH]c(=O)c1O (stereo not drawn) [Compound 16, 2-fluoro-N-(2-(5-hydroxy-6-oxo-1,6-dihydropyrimidin-4-yl)-3-(4-((4-(2-morpholinoethyl)phenyl)ethynyl)phenyl)propyl)acetamide] | – | – | – | MIC (E. coli): 1 to 8 µg/mL (≈ 1.93 to 15.4 µM); MIC (K. pneumoniae): 8 to 32 µg/mL (≈ 15.4 to 61.7 µM); MIC (S. aureus): > 32 µg/mL
N#CC1CN(Cc2ccc(C#Cc3ccc(CCc4nc[nH]c(=O)c4O)cc3F)cc2)C1 [Compound 188, 1-(4-((2-fluoro-4-(2-(5-hydroxy-6-oxo-1,6-dihydropyrimidin-4-yl)ethyl)phenyl)ethynyl)benzyl)azetidine-3-carbonitrile] | < 1 | 1 to 8 (≈ 2.33 to 18.7 µM) | > 32 | –
O=C(CF)NCC(Cc1ccc(C#Cc2ccc(CN3CCCC3)cc2)cc1)c1nc[nH]c(=O)c1O (stereo not drawn) [Compound 44, 2-fluoro-N-(2-(5-hydroxy-6-oxo-1,6-dihydropyrimidin-4-yl)-3-(4-((4-(pyrrolidin-1-ylmethyl)phenyl)ethynyl)phenyl)propyl)acetamide] | – | – | – | MIC (E. coli): > 32 µg/mL; MIC (K. pneumoniae): > 32 µg/mL; MIC (S. aureus): > 32 µg/mL
N[C@@H]1CCN(Cc2ccc(C#Cc3ccc(CC(CNC(=O)CF)c4nc[nH]c(=O)c4O)cc3)cc2)C1 (stereo partly drawn) [Compound 45, N-(3-(4-((4-(((R)-3-aminopyrrolidin-1-yl)methyl)phenyl)ethynyl)phenyl)-2-(5-hydroxy-6-oxo-1,6-dihydropyrimidin-4-yl)propyl)-2-fluoroacetamide] | – | – | – | MIC (E. coli): > 32 µg/mL; MIC (K. pneumoniae): > 32 µg/mL; MIC (S. aureus): > 32 µg/mL
COC(=O)NCC(Cc1ccc(C#Cc2ccc(CN3CC4CCC(C3)O4)cc2)cc1)c1nc[nH]c(=O)c1O (stereo not drawn) [Compound 21, methyl (3-(4-((4-((8-oxa-3-azabicyclo[3.2.1]octan-3-yl)methyl)phenyl)ethynyl)phenyl)-2-(5-hydroxy-6-oxo-1,6-dihydropyrimidin-4-yl)propyl)carbamate] | 1 to 8 (≈ 1.89 to 15.1 µM) | 8 to 32 (≈ 15.1 to 60.5 µM) | > 32 | –

Continued, in another order:

MIC (E. coli; [2]) [µg/mL] | MIC (K. pneumoniae; [2]) [µg/mL] | MIC (S. aureus; [2]) [µg/mL] | SMILES | other results
1 to 8 (≈ 2.01 to 16 µM) | 8 to 32 (≈ 16 to 64.2 µM) | > 32 | C=CC(=O)NCC(Cc1ccc(C#Cc2ccc(CN3CCOCC3)cc2)cc1)c1nc[nH]c(=O)c1O (stereo not drawn) [Compound 20, N-(2-(5-hydroxy-6-oxo-1,6-dihydropyrimidin-4-yl)-3-(4-((4-(morpholinomethyl)phenyl)ethynyl)phenyl)propyl)acrylamide] | –
1 to 8 (≈ 1.99 to 15.9 µM) | 8 to 32 (≈ 15.9 to 63.8 µM) | > 32 | NCCNC(=O)C(Cc1ccc(C#Cc2ccc(CN3CCOCC3)cc2)cc1)c1nc[nH]c(=O)c1O (stereo not drawn) [Compound 10, N-(2-aminoethyl)-2-(5-hydroxy-6-oxo-1,6-dihydropyrimidin-4-yl)-3-(4-((4-(morpholinomethyl)phenyl)ethynyl)phenyl) propanamide] | –
8 to 32 (≈ 16 to 64.2 µM) | > 32 | > 32 | C=CCNC(=O)C(Cc1ccc(C#Cc2ccc(CN3CCOCC3)cc2)cc1)c1nc[nH]c(=O)c1O (stereo not drawn) [Compound 6, N-allyl-2-(5-hydroxy-6-oxo-1,6-dihydropyrimidin-4-yl)-3-(4-((4-(morpholinomethyl)phenyl)ethynyl)phenyl)propanamide] | –
8 to 32 (≈ 15.9 to 63.7 µM) | > 32 | > 32 | O=C(NCCO)C(Cc1ccc(C#Cc2ccc(CN3CCOCC3)cc2)cc1)c1nc[nH]c(=O)c1O (stereo not drawn) [Compound 7, 2-(5-hydroxy-6-oxo-1,6-dihydropyrimidin-4-yl)-N-(2-hydroxyethyl)-3-(4-((4-(morpholinomethyl)phenyl)ethynyl)phenyl) propanamide] | –
1 to 8 (≈ 2.12 to 16.9 µM) | > 32 | > 32 | CNC(=O)C(Cc1ccc(C#Cc2ccc(CN3CCOCC3)cc2)cc1)c1nc[nH]c(=O)c1O (stereo not drawn) [Compound 5, 2-(5-hydroxy-6-oxo-1,6-dihydropyrimidin-4-yl)-N-methyl-3-(4-((4-(morpholinomethyl)phenyl)ethynyl)phenyl) propanamide] | –
> 32 | > 32 | > 32 | O=C(CN1CCC1)NCC(Cc1ccc(C#Cc2ccc(CN3CCOCC3)cc2)cc1)c1nc[nH]c(=O)c1O (stereo not drawn) [Compound 46, 2-(azetidin-1-yl)-N-(2-(5-hydroxy-6-oxo-1,6-dihydropyrimidin-4-yl)-3-(4-((4-(morpholinomethyl)phenyl)ethynyl)phenyl)propyl)acetamide] | –
1 to 8 (≈ 1.85 to 14.8 µM) | 1 to 8 (≈ 1.85 to 14.8 µM) | > 32 | O=C(NCC(Cc1ccc(C#Cc2ccc(CN3CCOCC3)cc2)cc1)c1nc[nH]c(=O)c1O)C(F)(F)F (stereo not drawn) [Compound 18, 2,2,2-trifluoro-N-(2-(5-hydroxy-6-oxo-1,6-dihydropyrimidin-4-yl)-3-(4-((4-(morpholinomethyl)phenyl)ethynyl)phenyl)propyl)acetamide] | –
1 to 8 (≈ 2.06 to 16.4 µM) | 8 to 32 (≈ 16.4 to 65.8 µM) | > 32 | CC(=O)NCC(Cc1ccc(C#Cc2ccc(CN3CCOCC3)cc2)cc1)c1nc[nH]c(=O)c1O (stereo not drawn) [Compound 19, N-(2-(5-hydroxy-6-oxo-1,6-dihydropyrimidin-4-yl)-3-(4-((4-(morpholinomethyl)phenyl)ethynyl)phenyl)propyl)acetamide] | –
> 32 | > 32 | > 32 | O=C(Nc1nnn[nH]1)C(Cc1ccc(C#Cc2ccc(CN3CCOCC3)cc2)cc1)c1nc[nH]c(=O)c1O (stereo not drawn) [Compound 11, 2-(5-hydroxy-6-oxo-1,6-dihydropyrimidin-4-yl)-3-(4-((4-(morpholinomethyl)phenyl)ethynyl)phenyl)-N-(1H-tetrazol-5-yl)propanamide] | –
